Laboratory results reported in ChEMBL document CHEMBL2216752, “Carnitine palmitoyltransferase (CPT) modulators: a medicinal chemistry perspective on 35 years of research” (J Med Chem, 2011).

Legend:
[1] = Inhibition of carnitine palmitoyltransferase in rat liver mitochondria assessed as conversion of [14C]palmitic acid to [14C]palmitoylcarnitine by radiometric assay
[2] = Inhibition of carnitine palmitoyltransferase in rat heart mitochondria assessed as conversion of [14C]palmitic acid to [14C]palmitoylcarnitine by radiometric assay
[3] = target: T1, Carnitine O-palmitoyltransferase 2, mitochondrial (Rattus norvegicus, UniProt P18886); assay: Inhibition of rat CPT2 using [3H]carnitine by radiometric assay
T1 sequence (P18886 whole entry): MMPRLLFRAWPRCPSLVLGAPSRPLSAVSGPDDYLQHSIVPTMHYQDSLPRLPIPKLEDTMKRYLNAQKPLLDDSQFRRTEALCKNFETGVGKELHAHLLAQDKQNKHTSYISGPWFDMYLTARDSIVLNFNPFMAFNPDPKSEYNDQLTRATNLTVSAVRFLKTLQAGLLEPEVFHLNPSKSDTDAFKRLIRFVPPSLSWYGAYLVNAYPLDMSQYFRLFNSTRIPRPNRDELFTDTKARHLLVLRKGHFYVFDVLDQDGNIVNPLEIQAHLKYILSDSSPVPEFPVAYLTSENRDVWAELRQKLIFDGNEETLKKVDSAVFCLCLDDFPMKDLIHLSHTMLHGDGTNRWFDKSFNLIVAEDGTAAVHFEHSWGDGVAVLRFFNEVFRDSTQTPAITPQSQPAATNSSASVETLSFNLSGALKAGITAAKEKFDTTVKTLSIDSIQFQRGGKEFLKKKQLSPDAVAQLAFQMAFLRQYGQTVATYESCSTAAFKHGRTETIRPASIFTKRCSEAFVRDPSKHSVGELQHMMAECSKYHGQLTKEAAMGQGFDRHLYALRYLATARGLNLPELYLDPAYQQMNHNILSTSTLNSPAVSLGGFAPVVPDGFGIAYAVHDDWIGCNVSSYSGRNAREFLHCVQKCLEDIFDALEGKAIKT

[4] = target: T2, Carnitine O-palmitoyltransferase 1, liver isoform (Rattus norvegicus, UniProt P32198); assay: Inhibition of rat CPT1A using [3H]carnitine by radiometric assay
T2 sequence (P32198 whole entry): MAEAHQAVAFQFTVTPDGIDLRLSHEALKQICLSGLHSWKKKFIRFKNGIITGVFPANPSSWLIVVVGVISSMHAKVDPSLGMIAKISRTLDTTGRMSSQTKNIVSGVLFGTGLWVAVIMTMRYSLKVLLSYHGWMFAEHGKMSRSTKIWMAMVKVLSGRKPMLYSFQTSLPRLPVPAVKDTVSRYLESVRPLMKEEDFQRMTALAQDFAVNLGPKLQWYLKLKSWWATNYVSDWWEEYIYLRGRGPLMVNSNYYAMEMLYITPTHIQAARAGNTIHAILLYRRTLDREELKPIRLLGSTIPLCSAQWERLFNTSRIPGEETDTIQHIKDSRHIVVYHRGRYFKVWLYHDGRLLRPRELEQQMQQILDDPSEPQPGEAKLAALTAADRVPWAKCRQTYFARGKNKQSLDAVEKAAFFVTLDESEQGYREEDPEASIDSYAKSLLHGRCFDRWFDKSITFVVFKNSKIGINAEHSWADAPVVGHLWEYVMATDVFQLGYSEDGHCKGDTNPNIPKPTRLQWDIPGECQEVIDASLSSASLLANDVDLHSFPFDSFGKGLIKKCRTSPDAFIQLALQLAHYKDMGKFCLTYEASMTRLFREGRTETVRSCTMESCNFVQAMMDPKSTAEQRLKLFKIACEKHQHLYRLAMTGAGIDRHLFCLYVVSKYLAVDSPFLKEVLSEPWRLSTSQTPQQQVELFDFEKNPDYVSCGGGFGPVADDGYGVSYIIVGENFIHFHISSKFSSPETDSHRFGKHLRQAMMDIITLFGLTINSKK

[5] = target: T3, Mitochondrial carnitine/acylcarnitine carrier protein (Homo sapiens, UniProt O43772); assay: Inhibition of CACT
T3 sequence (O43772 whole entry): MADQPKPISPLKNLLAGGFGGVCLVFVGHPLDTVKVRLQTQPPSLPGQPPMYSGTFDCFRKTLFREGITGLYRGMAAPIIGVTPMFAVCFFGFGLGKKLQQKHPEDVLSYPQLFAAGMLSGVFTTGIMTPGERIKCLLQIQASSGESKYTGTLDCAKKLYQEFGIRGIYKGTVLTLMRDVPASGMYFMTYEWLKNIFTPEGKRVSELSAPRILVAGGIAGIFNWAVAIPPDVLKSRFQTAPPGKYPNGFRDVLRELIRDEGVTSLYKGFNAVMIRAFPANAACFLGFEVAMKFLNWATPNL

[6] = target: T4, Carnitine O-palmitoyltransferase 1, liver isoform (Homo sapiens, UniProt P50416); assay: Inhibition of human CPT1A
T4 sequence (P50416 whole entry): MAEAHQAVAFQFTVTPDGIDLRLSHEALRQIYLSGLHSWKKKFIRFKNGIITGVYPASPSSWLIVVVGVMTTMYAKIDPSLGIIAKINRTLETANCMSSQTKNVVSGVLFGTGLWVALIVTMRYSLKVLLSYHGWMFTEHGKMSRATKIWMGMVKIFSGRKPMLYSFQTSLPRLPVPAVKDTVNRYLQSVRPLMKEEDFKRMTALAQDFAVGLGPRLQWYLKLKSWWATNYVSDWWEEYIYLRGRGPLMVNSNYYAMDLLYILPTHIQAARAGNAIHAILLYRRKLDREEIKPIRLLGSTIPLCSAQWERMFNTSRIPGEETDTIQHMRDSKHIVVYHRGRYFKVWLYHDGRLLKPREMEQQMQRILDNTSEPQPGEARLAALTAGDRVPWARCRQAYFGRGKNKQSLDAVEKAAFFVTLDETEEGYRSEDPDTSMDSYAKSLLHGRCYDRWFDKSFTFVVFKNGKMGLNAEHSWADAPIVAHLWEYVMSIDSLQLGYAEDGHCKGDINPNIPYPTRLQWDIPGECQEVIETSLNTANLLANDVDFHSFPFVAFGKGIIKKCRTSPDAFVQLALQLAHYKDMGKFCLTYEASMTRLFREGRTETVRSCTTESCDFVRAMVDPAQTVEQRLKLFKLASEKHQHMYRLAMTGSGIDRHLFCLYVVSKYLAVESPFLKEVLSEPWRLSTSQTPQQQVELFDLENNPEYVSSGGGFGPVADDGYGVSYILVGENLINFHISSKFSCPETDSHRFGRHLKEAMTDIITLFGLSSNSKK

[7] = target: T1, Carnitine O-palmitoyltransferase 2, mitochondrial; assay: Inhibition of rat CPT2
[8] = target: T5, Carnitine O-palmitoyltransferase 1, muscle isoform (Homo sapiens, UniProt Q92523); assay: Inhibition of human CPT1B
T5 sequence (Q92523 whole entry): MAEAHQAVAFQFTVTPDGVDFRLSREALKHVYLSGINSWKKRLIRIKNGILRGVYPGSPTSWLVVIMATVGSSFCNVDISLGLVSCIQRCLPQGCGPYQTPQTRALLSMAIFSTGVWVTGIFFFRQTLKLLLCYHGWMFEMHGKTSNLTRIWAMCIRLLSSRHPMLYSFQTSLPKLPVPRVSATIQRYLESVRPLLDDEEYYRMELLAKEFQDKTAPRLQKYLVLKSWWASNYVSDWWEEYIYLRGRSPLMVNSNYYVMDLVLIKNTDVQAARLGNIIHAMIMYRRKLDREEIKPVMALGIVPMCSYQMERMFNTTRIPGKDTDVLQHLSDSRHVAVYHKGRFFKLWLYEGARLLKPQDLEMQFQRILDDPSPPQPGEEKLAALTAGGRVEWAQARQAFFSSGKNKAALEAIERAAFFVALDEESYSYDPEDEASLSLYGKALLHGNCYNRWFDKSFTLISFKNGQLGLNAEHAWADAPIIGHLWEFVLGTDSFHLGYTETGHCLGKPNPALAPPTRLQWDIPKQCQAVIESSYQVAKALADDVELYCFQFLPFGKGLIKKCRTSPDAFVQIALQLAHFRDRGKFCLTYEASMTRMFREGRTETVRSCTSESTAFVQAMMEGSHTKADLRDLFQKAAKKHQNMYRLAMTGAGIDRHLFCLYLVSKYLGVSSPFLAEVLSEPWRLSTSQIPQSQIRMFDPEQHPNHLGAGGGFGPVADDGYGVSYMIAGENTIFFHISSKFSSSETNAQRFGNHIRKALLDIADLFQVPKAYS

[9] = target: T4, Carnitine O-palmitoyltransferase 1, liver isoform; assay: Inhibition of human CPT1A expressed in Saccharomyces cerevisiae mitochondria assessed as palmitoylcarnitine by HPLC method
[10] = Inhibition of human FAO
[11] = target: T6, Carnitine O-palmitoyltransferase 2, mitochondrial (Homo sapiens, UniProt P23786); assay: Inhibition of human CPT2
T6 sequence (P23786 whole entry): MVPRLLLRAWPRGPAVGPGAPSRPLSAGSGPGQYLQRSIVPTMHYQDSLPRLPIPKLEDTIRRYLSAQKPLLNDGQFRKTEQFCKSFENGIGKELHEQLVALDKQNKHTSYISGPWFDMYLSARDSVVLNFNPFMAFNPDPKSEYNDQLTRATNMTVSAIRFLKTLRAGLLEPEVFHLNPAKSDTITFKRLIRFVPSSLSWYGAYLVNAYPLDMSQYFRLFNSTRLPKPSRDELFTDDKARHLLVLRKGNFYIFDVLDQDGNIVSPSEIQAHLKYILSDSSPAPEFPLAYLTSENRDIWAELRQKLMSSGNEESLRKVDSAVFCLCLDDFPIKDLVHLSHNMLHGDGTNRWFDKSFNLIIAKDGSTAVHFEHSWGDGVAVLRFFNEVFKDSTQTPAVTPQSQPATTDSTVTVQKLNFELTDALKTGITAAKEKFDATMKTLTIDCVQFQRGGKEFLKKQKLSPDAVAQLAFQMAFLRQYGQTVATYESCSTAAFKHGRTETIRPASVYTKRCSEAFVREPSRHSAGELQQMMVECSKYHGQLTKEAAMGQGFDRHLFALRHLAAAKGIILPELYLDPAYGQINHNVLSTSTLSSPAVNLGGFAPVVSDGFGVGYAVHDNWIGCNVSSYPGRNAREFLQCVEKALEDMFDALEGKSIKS

[12] = Inhibition of rat FAO

IC50 [6] [µM] | IC50 [7] [µM] | IC50 [8] [µM] | SMILES | further results
 |  |  | CCCCCCCCCCCNS(=O)(=O)N[C@H](CC(=O)[O-])C[N+](C)(C)C | IC50 [1]: 0.8 µM; IC50 [2]: 5.8 µM
 |  |  | CCCCCCCCCCCCCCCC1(O)C[N+](C)(C)CC(CC(=O)[O-])O1 (stereo in doubt; (+)-27) | IC50 [3]: 47.5 µM; IC50 [4]: 38.5 µM
 |  |  | CCCCCCCCCCCCCCCC(=O)O[C@@H](CC(=O)[O-])C[N+](C)(C)C | IC50 [5]: 35 µM
0.065 | > 100 | > 100 | COc1ccc(-c2noc([C@H]3CCCCN3C(=O)COc3ccccc3)n2)cc1 | 
 |  |  | CCCCCc1ccc(S(=O)(=O)NC2(CC(=O)[O-])CCC[N+](C)(C)C2)cc1 (configuration not stated) | IC50 [9]: < 1 µM
 |  |  | CCCCCc1ccc(S(=O)(=O)NC2(CC(=O)[O-])CC[N+](C)(C)CC2)cc1 | IC50 [9]: < 1 µM
 | 28.5 | 6.4 | O=C(O)c1ccc(NC(=O)c2cccc(NS(=O)(=O)c3ccc(Cl)c(Cl)c3)c2)cc1 | 
2.4 | > 100 | 0.16 | O=C(O)C(=O)c1ccc(OCCOc2ccc3ccccc3c2)s1 | IC50 [10]: 25.5 µM; IC50 [11]: 4.7 µM; IC50 [12]: > 100 µM
0.16 | 16.7 | 3.5 | COc1ccc(C)cc1S(=O)(=O)N1CCCc2ccc(C(=O)Nc3ccc(CC(=O)O)cc3)cc21 | IC50 [11]: 2.8 µM
0.02 | 30.7 | > 100 | O=C(COc1ccccc1)N1CCCC[C@@H]1c1nc(-c2ccccn2)cs1 | IC50 [11]: 4.8 µM
 |  |  | CCCCCCCC(=O)O[C@@H](CC(=O)[O-])C[N+](C)(C)C | IC50 [5]: 35 µM
